# In the supplement of paper PMC11208160:
# Experiment: recombinant UMI read abundance after kanamycin selection (control-corrected) (log10(CPM+1)); higher = more efficient recombination; extreme values may be limits of the assay; sequences stand for … in AGTGCAGAGAAAATCGGCCAGTTTTCTCTGCCTGCAGTCCGCATGCCGTGGGACCCCTTGGGTTCTAACCTGTTGCCTAGATTTATGCAGCGGACTGCCTTTCTCCCAAAGTGATAAACCGG…AGGTTGGTTTCACT; site = the 11-nt donor
# Method: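 Pooled E. coli donor-specificity screen for the IS621 bridge recombinase. Each library member carries a reprogrammed 11-nt donor and a full-length LE bridge RNA expressed in cis from the natural promoter, with a paired donor-binding loop (8-nt LDG + 4-nt RDG) and a target-binding loop fixed to T5. It is co-electroporated with a T5 target plasmid; recombinase is induced with 0.07 mM IPTG and recombinants are selected on kanamycin. UMIs are counted as CPM, averaged over two biological replicates and corrected by the unselected control. Molecule = full bridge RNA written as DNA, built from the T5 scaffold: LDG = donor specificity nt 1-8, RDG = reverse complement of nt 8-11.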
# 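Note: IS621 bridge recombinase in Escherichia coli cells against a fixed T5 target plasmid.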
row,Sequence,recombinant UMI read abundance (log10)
1,GATTATACATGGACCGGTTTTCCCGGTAATCCGTATTTGCT (site GATTATACTAG),1.87
2,AGCTCAGCATGGACCGGTTTTCCCGGTAATCCGTATTTGGA (site AGCTCAGCTGC),0
3,GCTACTGCATGGACCGGTTTTCCCGGTAATCCGTATTTGAC (site GCTACTGCTGT),2.07
4,TAGGAATCATGGACCGGTTTTCCCGGTAATCCGTATTTGCG (site GAGGAATCTCG),0
5,ACACGAACATGGACCGGTTTTCCCGGTAATCCGTATTTGGC (site ACACGAACTGG),0
6,CAATTCACATGGACCGGTTTTCCCGGTAATCCGTATTTGGG (site CAACTCACTCC),0.251
7,TGCTCAGCATGGACCGGTTTTCCCGGTAATCCGTATTTGGG (site AGCTCAGCTCC),0.0267
8,TGGCTAGCATGGACCGGTTTTCCCGGTAATCCGTATTTGAA (site TCGCTAGCTTT),0.0168
9,TTAGCTGCATGGACCGGTTTTCCCGGTAATCCGTATTTGTA (site TTAGCTGCTTA),1.35
10,CAATACTCATGGACCGGTTTTCCCGGTAATCCGTATTTGAA (site CAATTCTCTTT),0
11,GGATAGACATGGACCGGTTTTCCCGGTAATCCGTATTTGCC (site GGACAGACTGG),2.55
12,TGGCCGGCATGGACCGGTTTTCCCGGTAATCCGTATTTGGC (site TGTCCGGCTGC),0
13,TATTTGGCATGGACCGGTTTTCCCGGTAATCCGTATTTGTC (site TATTTGGCTTA),0.00596
14,TTTATTTCATGGACCGGTTTTCCCGGTAATCCGTATTTGAG (site TTTATTTCTCT),0.00225
15,TAGGAATCATGGACCGGTTTTCCCGGTAATCCGTATTTGCG (site TAGGAATCTCA),2.6
16,AATAGTGCATGGACCGGTTTTCCCGGTAATCCGTATTTGCC (site AATAGTGCTGG),1.5
17,TACGGATCATGGACCGGTTTTCCCGGTAATCCGTATTTGTA (site TACGGATCTTA),0.989
18,ACGCAACCATGGACCGGTTTTCCCGGTAATCCGTATTTGAA (site ACGCAACCTTT),0
19,CAATACGCATGGACCGGTTTTCCCGGTAATCCGTATTTGAT (site CAATACGCTAT),2.03
20,AGAAAGTCATGGACCGGTTTTCCCGGTAATCCGTATTTGCT (site AGAAAGTCTAG),2.63
21,ACACATCCATGGACCGGTTTTCCCGGTAATCCGTATTTGAC (site ACACATCCTGC),0
22,TTACAATCATGGACCGGTTTTCCCGGTAATCCGTATTTGGG (site TTACAATCTCC),0
23,CGCGTCACATGGACCGGTTTTCCCGGTAATCCGTATTTGAC (site CGCGTCACTGT),2.44
24,CTGGAGACATGGACCGGTTTTCCCGGTAATCCGTATTTGCA (site CTGGATACTTG),1.03

row,Sequence,recombinant UMI read abundance (log10)
1,TCTGGGTCATGGACCGGTTTTCCCGGTAATCCGTATTTGTT (site TCTGGGTCTAA),0.167
2,CTTCTCCCATGGACCGGTTTTCCCGGTAATCCGTATTTGTA (site CTTCTCACTTA),0.0088
3,GTTCAAGCATGGACCGGTTTTCCCGGTAATCCGTATTTGCA (site GTTCTAGCTTG),0
4,CTGCTACCATGGACCGGTTTTCCCGGTAATCCGTATTTGCC (site CTGCTACCTGG),0
5,TCTGGATCATGGACCGGTTTTCCCGGTAATCCGTATTTGCT (site TCTGGATCTAG),0
6,AGAAAGTCATGGACCGGTTTTCCCGGTAATCCGTATTTGCT (site AGAAAGCCTAG),0
7,AACCGTTCATGGACCGGTTTTCCCGGTAATCCGTATTTGAT (site AACCGTCCTAT),0.012
8,TAACTAGCATGGACCGGTTTTCCCGGTAATCCGTATTTGAA (site TATCTAGCTTT),0
9,GCCACGCCATGGACCGGTTTTCCCGGTAATCCGTATTTGTA (site GACACGCCTTA),0.0176
10,GTGGAGGCATGGACCGGTTTTCCCGGTAATCCGTATTTGTT (site GTGGAGGCTGA),2.66
11,TAAAATACATGGACCGGTTTTCCCGGTAATCCGTATTTGCA (site TAAAATACTTG),0
12,CGTAATCCATGGACCGGTTTTCCCGGTAATCCGTATTTGTC (site CGTAATCCTGA),1.47
13,CCTAAAGCATGGACCGGTTTTCCCGGTAATCCGTATTTGTT (site CCTAAAGCTAT),0.00347
14,ACAGTAGCATGGACCGGTTTTCCCGGTAATCCGTATTTGCG (site ACAGTAGCTCG),2.42
15,TCTAAGACATGGACCGGTTTTCCCGGTAATCCGTATTTGTG (site TCTAAGACTCA),0.00606
16,CGGCTACCATGGACCGGTTTTCCCGGTAATCCGTATTTGCT (site CGGCTACCTAG),0
17,TCGGAGACATGGACCGGTTTTCCCGGTAATCCGTATTTGCG (site TCGGAGACTCG),2.41
18,CAATTCTCATGGACCGGTTTTCCCGGTAATCCGTATTTGCT (site CAATTCCCTAG),0.421
19,CGGTCCTCATGGACCGGTTTTCCCGGTAATCCGTATTTGCA (site CGGTCCTCTTG),0
20,CGATGACCATGGACCGGTTTTCCCGGTAATCCGTATTTGCT (site CGATCATCTAG),0
21,AGGATTCCATGGACCGGTTTTCCCGGTAATCCGTATTTGTT (site CGGAATCCTAA),0.0087
22,TACTAGGCATGGACCGGTTTTCCCGGTAATCCGTATTTGGT (site TCCTAGGCTAC),0.0602
23,AAGCACGCATGGACCGGTTTTCCCGGTAATCCGTATTTGGG (site AAGCACGCTGC),0
24,GGGGCACCATGGACCGGTTTTCCCGGTAATCCGTATTTGCA (site GGGGCGCCTTG),0.0148

row,Sequence,recombinant UMI read abundance (log10)
1,CCTGGAACATGGACCGGTTTTCCCGGTAATCCGTATTTGTT (site CTTGGAACTAA),0.00851
2,CTCTTGGCATGGACCGGTTTTCCCGGTAATCCGTATTTGGA (site CTCTTGGCTTC),0.529
3,TAGGAATCATGGACCGGTTTTCCCGGTAATCCGTATTTGCG (site TAGGGATCTCG),1.43
4,CTTCTACCATGGACCGGTTTTCCCGGTAATCCGTATTTGCT (site CTGCTACCTAG),0
5,TGCTCGGCATGGACCGGTTTTCCCGGTAATCCGTATTTGGT (site TGCTGGGCTAC),0.00677
6,TATTTGGCATGGACCGGTTTTCCCGGTAATCCGTATTTGTG (site TATGTGGCTCA),0.0139
7,TCAGAAACATGGACCGGTTTTCCCGGTAATCCGTATTTGCG (site TCAGATACTCG),0.202
8,GGGGCACCATGGACCGGTTTTCCCGGTAATCCGTATTTGCA (site CGGGCACCTTG),0
9,CGAAATCCATGGACCGGTTTTCCCGGTAATCCGTATTTGCT (site CGGAATCCTAA),0
10,TAGCTAGCATGGACCGGTTTTCCCGGTAATCCGTATTTGTA (site TAGCTAGCTTT),0.235
11,GCCACGCCATGGACCGGTTTTCCCGGTAATCCGTATTTGTA (site GCCACCCCTTA),0.0213
12,TGTACACCATGGACCGGTTTTCCCGGTAATCCGTATTTGAC (site TATACACCTGT),0
13,CAATTCCCATGGACCGGTTTTCCCGGTAATCCGTATTTGCA (site CAATTCCCTCG),0.00698
14,TCATACTCATGGACCGGTTTTCCCGGTAATCCGTATTTGCA (site TCATACTCTTC),0.0158
15,CAACTCTCATGGACCGGTTTTCCCGGTAATCCGTATTTGGT (site CAACTCTCTAC),2.56
16,CCTAACGCATGGACCGGTTTTCCCGGTAATCCGTATTTGAT (site CCTAAGGCTAT),0
17,ATTCCCTCATGGACCGGTTTTCCCGGTAATCCGTATTTGAC (site ATTCCCTCTGT),3.23
18,GGTTCAACATGGACCGGTTTTCCCGGTAATCCGTATTTGTA (site GGTGCAACTTA),0.00737
19,AGATCAGCATGGACCGGTTTTCCCGGTAATCCGTATTTGGG (site AGATCAGCTCC),0.224
20,CCAGGTACATGGACCGGTTTTCCCGGTAATCCGTATTTGAT (site CCAGGTTCTAT),0.478
21,CAAGTGACATGGACCGGTTTTCCCGGTAATCCGTATTTGGG (site CAAGTAACTCC),1.09
22,GATTGGGCATGGACCGGTTTTCCCGGTAATCCGTATTTGAC (site GATTGGACTGT),0.803
23,CTGCTACCATGGACCGGTTTTCCCGGTAATCCGTATTTGCT (site CGGCTACCTAG),0
24,TAAAGTCCATGGACCGGTTTTCCCGGTAATCCGTATTTGTC (site TAAAGTCCTTA),0.00692
